Active and inactive are the calls of the source.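 Rule for the calls: active = STAT5 reporter signal fold change below 0.5 at a 10 µM dose; inactive = the rest.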
Tested on: T47D STAT5-luciferase reporter, prolactin-induced, luminescence
Assay: STAT5 signaling inhibitors, reporter cells, late-stage follow-up, cell-based, luminescence, T47D, assay provider (AID 652026)
Conditions: at 10 µM; active compounds read low

| Compound | fold change |
| --- | --- |
| CN1/C(=C\C(=O)CN2C(=O)NC(C)(c3ccc(Cl)cc3)C2=O)C(C)(C)c2ccccc21 (stereo not given) | 0.769 (inactive) |
| CN1/C(=C\C(=O)Cn2cc(C(F)(F)F)ccc2=O)C(C)(C)c2ccccc21 | 0.971 (inactive) |
| COc1ccc2oc(=O)c(C(=O)C[n+]3ccc4ccccc4c3)cc2c1 | 0.843 (inactive) |
| Cc1cc[n+](CC(=O)/C=C2\N(C)c3ccccc3C2(C)C)cc1 | 0.738 (inactive) |
| O=C(C[n+]1ccc2ccccc2c1)c1ccccc1 | 0.909 (inactive) |
| CN1/C(=C\C(=O)Cn2cnc3ccc(Cl)cc3c2=O)C(C)(C)c2ccccc21 | 0.845 (inactive) |
| CN1/C(=C\C(=O)CN2CCCC2)C(C)(C)c2ccccc21 | 0.704 (inactive) |
| COc1cccc2cc(C(=O)C[n+]3ccc4ccccc4c3)c(=O)oc12 | 0.965 (inactive) |
| CN1/C(=C\C(=O)CN2C(=O)C3CC=CCC3C2=O)C(C)(C)c2ccccc21 (stereo not given) | 0.473 |
| O=C(C[n+]1ccc2ccccc2c1)c1cc2ccccc2oc1=O | 0.305 |
| CN1/C(=C\C(=O)CN2C(=O)c3ccc([N+](=O)[O-])cc3C2=O)C(C)(C)c2ccccc21 | 0.76 (inactive) |
| CC(C)(C)C(=O)C[n+]1ccc2ccccc2c1 | 0.696 (inactive) |
| CN1/C(=C\C(=O)CN2CCc3ccccc3C2)C(C)(C)c2ccccc21 | 0.962 (inactive) |
| CN1/C(=C\C(=O)C[n+]2ccccc2)C(C)(C)c2ccccc21 | 0.777 (inactive) |
| COC(=O)C1CCCCN1CC(=O)/C=C1/N(C)c2ccccc2C1(C)C (stereo not given) | 0.906 (inactive) |
| CN1/C(=C\C(=O)CN2C(=O)c3ccccc3S2(=O)=O)C(C)(C)c2ccccc21 | 0.733 (inactive) |
| CN1/C(=C\C(=O)CN2C(=O)c3ccccc3CS2(=O)=O)C(C)(C)c2ccccc21 | 0.766 (inactive) |
| CN1/C(=C\C(=O)Cn2nnc(-c3ccccc3)n2)C(C)(C)c2ccccc21 | 0.724 (inactive) |
| CN1/C(=C\C(=O)Cn2c(=O)c(C#N)cn(C)c2=O)C(C)(C)c2ccccc21 | 0.739 (inactive) |
| O=C(C[n+]1ccc2ccccc2c1)c1ccc2ccccc2c1 | 0.818 (inactive) |
| Cc1cc[n+](CC(=O)/C=C2\N(C)c3ccccc3C2(C)C)c(C)c1 | 0.67 (inactive) |
| O=C(C[n+]1ccc2ccccc2c1)Nc1ccccc1 | 0.895 (inactive) |
| CN1/C(=C\C(=O)CN2C(=O)c3ccccc3C2=O)C(C)(C)c2ccccc21 | 0.859 (inactive) |
| CN1/C(=C\C(=O)C[n+]2cccc(-c3ccccc3)c2)C(C)(C)c2ccccc21 | 0.367 |
| CCOC(=O)C1CCCN(CC(=O)/C=C2/N(C)c3ccccc3C2(C)C)C1 (stereo not given) | 0.856 (inactive) |

Source: PubChem BioAssay AID652026 (The Scripps Research Institute Molecular Screening Center, 2013)
